Patent US11021521B2, “Pore-modified gram-negative bacteria and uses thereof” (priority 2015, dated 2021)
≈ marks a conversion by molar mass, not a printed value. Read-outs that look alike come from different tables or passages of the source. Bridge positions count the residues as written; N and C are the ends. Square brackets hold non-standard residues; d marks the D form. Peptide text beside a SMILES is read from it. * marks the point of attachment. Ileψ(thiazoline)Cys = CC[C@H](C)[C@H](N)C1=N[C@H](C(=O)*)CS1; dOrn = NCCC[C@@H](N)C(=O)O

Key:
Experiment in all cases: microbe, parasite or virus in culture
Type in all cases: cell-based
[1] = tested on: B. cepacia Bc-RHA (wild type, empty cassette); conditions: Burkholderia cepacia, read-out: MIC
[2] = tested on: A. baumannii AbΔ3-ARA-EcPore (efflux-deficient, hyperporinated); conditions: Acinetobacter baumannii; AbΔ3-ARA-EcPore; at least three independent measurements; read-out: MIC
[3] = tested on: B. thailandensis BtΔ2-RHA-BtPore (efflux-deficient, hyperporinated); conditions: Burkholderia thailandensis
[4] = tested on: A. baumannii Ab-ARA (wild type, empty cassette); conditions: Acinetobacter baumannii, at least three independent measurements, read-out: MIC
[5] = tested on: P. aeruginosa PAO1-LAC-EcPore (hyperporinated); conditions: Pseudomonas aeruginosa; PAO1-LAC-EcPore; at least three independent measurements; read-out: MIC
[6] = tested on: P. aeruginosa PAO1-LAC (wild type, empty cassette); conditions: Pseudomonas aeruginosa, at least three independent measurements, read-out: MIC
[7] = tested on: B. thailandensis BtΔ2-RHA (efflux-deficient); conditions: Burkholderia thailandensis
[8] = tested on: B. thailandensis Bt-RHA (wild type, empty cassette)
[9] = tested on: A. baumannii Ab-ARA-EcPore (hyperporinated); conditions: Acinetobacter baumannii; Ab-ARA-EcPore; at least three independent measurements; read-out: MIC
[10] = tested on: B. thailandensis Bt-RHA-BtPore (hyperporinated)
[11] = tested on: A. baumannii AbΔ3-ARA (efflux-deficient); conditions: Acinetobacter baumannii; AbΔ3-ARA; at least three independent measurements; read-out: MIC
[12] = tested on: B. cepacia Bc-RHA-BtPore (hyperporinated); conditions: Burkholderia cepacia; Bc-RHA-BtPore; read-out: MIC
[13] = tested on: P. aeruginosa PaΔ3-LAC-EcPore (efflux-deficient, hyperporinated); conditions: Pseudomonas aeruginosa; PaΔ3-LAC-EcPore; at least three independent measurements; read-out: MIC
[14] = tested on: P. aeruginosa PaΔ3-LAC (efflux-deficient); conditions: Pseudomonas aeruginosa, at least three independent measurements, read-out: MIC

## NCC[C@H](O)C(=O)N[C@@H]1C[C@H](N)[C@@H](O[C@H]2O[C@H](CN)[C@@H](O)[C@H](O)[C@H]2O)[C@H](O)[C@H]1O[C@H]1O[C@H](CO)[C@@H](O)[C@H](N)[C@H]1O [Amikacin]
[1]
  MIC: 128 µg/mL (≈ 219 µM)
[2]
  MIC: 4 µg/mL (≈ 6.83 µM)
[3]
  MIC: 2 µg/mL (≈ 3.42 µM)
[4]
  MIC: 8 µg/mL (≈ 13.7 µM)
[5]
  MIC: 2 µg/mL (≈ 3.42 µM)
[6]
  MIC: 2 µg/mL (≈ 3.42 µM)
[7]
  MIC: 4 µg/mL (≈ 6.83 µM)
[8]; Burkholderia thailandensis
  MIC: 256 µg/mL (≈ 437 µM)
[9]
  MIC: 4 µg/mL (≈ 6.83 µM)
[10]; Burkholderia thailandensis
  MIC: 256 µg/mL (≈ 437 µM)
[11]
  MIC: 4 µg/mL (≈ 6.83 µM)
[12]
  MIC: 8 µg/mL (≈ 13.7 µM)

## CC1(C)S[C@@H]2[C@H](NC(=O)[C@H](N)c3ccccc3)C(=O)N2[C@H]1C(=O)O [Ampicillin]
[4]
  MIC: 2050 µg/mL (≈ 5860 µM)
[5]
  MIC: 16 µg/mL (≈ 45.8 µM)
[12]
  MIC: 512 µg/mL (≈ 1470 µM)

## CC[C@H]1OC(=O)[C@H](C)[C@@H](O[C@H]2C[C@@](C)(OC)[C@@H](O)[C@H](C)O2)[C@H](C)[C@@H](O[C@@H]2O[C@H](C)C[C@H](N(C)C)[C@H]2O)[C@](C)(O)C[C@@H](C)CN(C)[C@H](C)[C@@H](O)[C@]1(C)O [Azithromycin]
[1]
  MIC: 64 µg/mL (≈ 85.4 µM)
[2]
  MIC: 0.08 µg/mL (≈ 0.107 µM)
[3]
  MIC: 0.032 µg/mL (≈ 0.0427 µM)
[4]
  MIC: 0.31 µg/mL (≈ 0.414 µM)
[5]
  MIC: 4 µg/mL (≈ 5.34 µM)
[13]
  MIC: 0.063 µg/mL (≈ 0.0841 µM)
[14]
  MIC: 4 µg/mL (≈ 5.34 µM)
[7]
  MIC: 1 µg/mL (≈ 1.34 µM)
[8]; Burkholderia thailandensis
  MIC: 128 µg/mL (≈ 171 µM)
[9]
  MIC: 0.04 µg/mL (≈ 0.0534 µM)
[10]; Burkholderia thailandensis
  MIC: 64 µg/mL (≈ 85.4 µM)
[11]
  MIC: 0.31 µg/mL (≈ 0.414 µM)
[12]
  MIC: 1 to 2 µg/mL (≈ 1.34 to 2.67 µM)

## CC[C@H](C)[C@H](N)C1=N[C@H](C(=O)N[C@@H](CC(C)C)C(=O)N[C@H](CCC(=O)O)C(=O)N[C@H](C(=O)N[C@H]2CCCCNC(=O)[C@H](CC(N)=O)NC(=O)[C@@H](CC(=O)O)NC(=O)[C@H](Cc3cnc[nH]3)NC(=O)[C@@H](Cc3ccccc3)NC(=O)[C@H]([C@@H](C)CC)NC(=O)[C@@H](CCCN)NC2=O)[C@@H](C)CC)CS1 [Bacitracin] ({Ileψ(thiazoline)Cys}-L[dE]IK[dOrn]I[dF]H[dD]N; lactam 4-C)
[1]
  MIC: > 1020 µg/mL
[2]
  MIC: 64 µg/mL (≈ 45 µM)
[3]
  MIC: 8 µg/mL (≈ 5.62 µM)
[4]
  MIC: 256 µg/mL (≈ 180 µM)
[5]
  MIC: 64 µg/mL (≈ 45 µM)
[13]
  MIC: 64 µg/mL (≈ 45 µM)
[6]
  MIC: > 1020 µg/mL
[14]
  MIC: > 1020 µg/mL
[7]
  MIC: 1020 µg/mL (≈ 720 µM)
[8]; Burkholderia thailandensis
  MIC: > 1020 µg/mL
[9]
  MIC: 32 µg/mL (≈ 22.5 µM)
[10]; Burkholderia thailandensis
  MIC: 1020 µg/mL (≈ 720 µM)
[11]
  MIC: 512 µg/mL (≈ 360 µM)
[12]
  MIC: 16 µg/mL (≈ 11.2 µM)

## CC1(C)S[C@@H]2[C@H](NC(=O)C(C(=O)O)c3ccccc3)C(=O)N2[C@H]1C(=O)O (some centres unmarked) [Carbenicillin]
[1]
  MIC: > 1020 µg/mL
[2]
  MIC: 64 µg/mL (≈ 169 µM)
[3]
  MIC: 8 µg/mL (≈ 21.1 µM)
[4]
  MIC: 2050 µg/mL (≈ 5410 µM)
[5]
  MIC: 2 µg/mL (≈ 5.29 µM)
[13]
  MIC: 0.125 µg/mL (≈ 0.33 µM)
[14]
  MIC: 1 µg/mL (≈ 2.64 µM)
[7]
  MIC: 256 µg/mL (≈ 677 µM)
[8]
  MIC: 256 to 512 µg/mL
[9]
  MIC: 32 µg/mL (≈ 84.6 µM)
[10]; Burkholderia thailandensis
  MIC: 256 µg/mL (≈ 677 µM)
[11]
  MIC: 2050 µg/mL (≈ 5410 µM)
[12]
  MIC: 128 µg/mL (≈ 338 µM)

## O=C(N[C@H](CO)[C@H](O)c1ccc([N+](=O)[O-])cc1)C(Cl)Cl [Chloramphenicol]
[1]
  MIC: 16 µg/mL (≈ 49.5 µM)
[2]
  MIC: 4 µg/mL (≈ 12.4 µM)
[3]
  MIC: 1 µg/mL (≈ 3.09 µM)
[4]
  MIC: 32 µg/mL (≈ 99 µM)
[5]
  MIC: 2 µg/mL (≈ 6.19 µM)
[13]
  MIC: 0.125 µg/mL (≈ 0.387 µM)
[14]
  MIC: 1 µg/mL (≈ 3.09 µM)
[7]
  MIC: 4 µg/mL (≈ 12.4 µM)
[8]; Burkholderia thailandensis
  MIC: 8 µg/mL (≈ 24.8 µM)
[9]
  MIC: 8 µg/mL (≈ 24.8 µM)
[10]; Burkholderia thailandensis
  MIC: 8 µg/mL (≈ 24.8 µM)
[11]
  MIC: 8 µg/mL (≈ 24.8 µM)
[12]
  MIC: 4 µg/mL (≈ 12.4 µM)

## O=C(O)c1cn(C2CC2)c2cc(N3CCNCC3)c(F)cc2c1=O [Ciprofloxacin]
[1]
  MIC: 1 µg/mL (≈ 3.02 µM)

## Cc1onc(-c2ccccc2Cl)c1C(=O)N[C@@H]1C(=O)N2[C@@H]1SC(C)(C)[C@@H]2C(=O)O [Cloxacillin]
[1]
  MIC: 256 µg/mL (≈ 587 µM)
[2]
  MIC: 16 µg/mL (≈ 36.7 µM)
[3]
  MIC: 0.5 µg/mL (≈ 1.15 µM)
[4]
  MIC: 1020 µg/mL (≈ 2350 µM)
[5]
  MIC: 512 µg/mL (≈ 1170 µM)
[13]
  MIC: 8 µg/mL (≈ 18.4 µM)
[14]
  MIC: 128 µg/mL (≈ 294 µM)
[7]
  MIC: 32 µg/mL (≈ 73.4 µM)
[8]; Burkholderia thailandensis
  MIC: 256 µg/mL (≈ 587 µM)
[9]
  MIC: 128 µg/mL (≈ 294 µM)
[10]
  MIC: 128 to 256 µg/mL
[11]
  MIC: 128 µg/mL (≈ 294 µM)
[12]
  MIC: 4 µg/mL (≈ 9.18 µM)

## C[C@H]1c2cccc(O)c2C(=O)C2=C(O)[C@]3(O)C(=O)C(C(N)=O)=C(O)[C@@H](N(C)C)[C@@H]3[C@@H](O)[C@@H]21 [Doxycycline]
[1]
  MIC: 6 µg/mL (≈ 13.5 µM)
[2]
  MIC: 0.0016 µg/mL (≈ 0.0036 µM)
[3]
  MIC: 0.01 µg/mL (≈ 0.0225 µM)
[4]
  MIC: 0.04 µg/mL (≈ 0.09 µM)
[7]
  MIC: 0.02 µg/mL (≈ 0.045 µM)
[8]; Burkholderia thailandensis
  MIC: 3 µg/mL (≈ 6.75 µM)
[9]
  MIC: 0.02 µg/mL (≈ 0.045 µM)
[10]; Burkholderia thailandensis
  MIC: 1.5 µg/mL (≈ 3.38 µM)
[11]
  MIC: 0.0016 µg/mL (≈ 0.0036 µM)
[12]
  MIC: 3 µg/mL (≈ 6.75 µM)
